According to patent publication US20160022875A1, “BONE SUBSTITUTES GRAFTED BY MIMETIC PEPTIDES OF HUMAN BMP 2 PROTEIN” (TEKNIMED, priority 2013, published 2016):

Tested on: Runx2 gene
Experiment: Runx2 expression by RT-PCR as a function of density of peptide P1 grafted on a PET model support
Type: cell-based
Settings: P1 grafted on PET at 0.4, 1.2 and 4.3 pmol/mm^2
Description: The peptide P1 was covalently grafted onto a model support, at three different densities. The support is made of polyethylene terephthalate (PET). The densities are 0.4 pmol/mm^2, 1.2 pmol/mm^2 and 4.3 pmol/mm^2. The expression level of the Runx2 factor by RT-PCR as a function of the density of the peptide P1 grafted at the surface of a model support was measured for these three densities (FIG. 13). The best expression level of the Runx2 gene is obtained for 1.2 pmol/mm^2 of peptide density, which corresponds to a maximum cell differentiation activity for the model support.
The activity obtained is also stable over time (after 1 week of culture): at 96 h of culture, a continuous increase in the expression of the Runx2 factor (approximately 42%) is observed.

## CKIPKASSVPTELSAISMLYL [P1]
  peptide density giving the best expression level of the Runx2 gene: 1.2 pmol/mm^2
